Assay [1] relates to AMP-evoked hyperlocomotion. The assay is described as follows: Amphetamine-evoked hyperlocomotion in rats (open field). It is filed as in vivo. The note with it: adult male Sprague Dawley rats; 0.5 mg/kg amphetamine s.c.; distance traveled during the last 60 minutes of the 90-minute session. The method, then: Compounds may be tested for ability to impact behavior activity of rats according to the following procedures. Animals: Adult male, Sprague Dawley rats (Envigo, Indianapolis, IN, USA) are housed in a colony maintained at 23° C. with 12 h light/dark cycles (lights on at 0600 hours). All animals weigh 290-330 g at the beginning of the study and are equally divided into 5 groups (n=8 per group) and received one of the treatment conditions listed below. Behavioral Procedures: Studies are conducted in MedAssociates open field chambers (27.3 cm×27.3 cm×20.3 cm, MedAssociates, St. Albans, VT) in which movement is automatically tracked and recorded by 16 beam arrays. The administration pretreatment of the test article is determined to coincide with Tmax at the time of the amphetamine-evoked session with optimal route of administration. All groups are subcutaneously treated with 0.5 mg/kg amphetamine (AMP). The test article is tested in three dose groups with a half-log increase between doses. […] Locomotor data (distance traveled) is recorded as 5-minute bins throughout the 90-minute session. […] Statistical Analysis: Spontaneous locomotion (prior to AMP administration) is calculated as the total distance traveled during the first 30 minutes of the experimental session. AMP-evoked responses are calculated as the total distance traveled during the last 60 minutes of the experimental session which commenced immediately after AMP administration. Locomotor data may be analyzed by a one-way ANOVA. When there is a significant overall ANOVA, post hoc comparisons may be made by Dunnett's test with statistical significance determined as p<0.05. […] Behavioral Procedures: Studies were conducted in MedAssociates open field chambers (27.3 cm×27.3 cm×20.3 cm, MedAssociates, St. Albans, VT) in which movement was automatically tracked and recorded by 16 beam arrays. Administration pretreatment of the test article was determined to coincide with Tmax at the time of the amphetamine-evoked session with optimal route of administration. […]

Assay [2] deals with T1, rM4 receptors (Rattus norvegicus, UniProt P08485).
T1 construct: expressed in transfected cells; host or cells: CHO cells
T1 sequence (P08485 1-478): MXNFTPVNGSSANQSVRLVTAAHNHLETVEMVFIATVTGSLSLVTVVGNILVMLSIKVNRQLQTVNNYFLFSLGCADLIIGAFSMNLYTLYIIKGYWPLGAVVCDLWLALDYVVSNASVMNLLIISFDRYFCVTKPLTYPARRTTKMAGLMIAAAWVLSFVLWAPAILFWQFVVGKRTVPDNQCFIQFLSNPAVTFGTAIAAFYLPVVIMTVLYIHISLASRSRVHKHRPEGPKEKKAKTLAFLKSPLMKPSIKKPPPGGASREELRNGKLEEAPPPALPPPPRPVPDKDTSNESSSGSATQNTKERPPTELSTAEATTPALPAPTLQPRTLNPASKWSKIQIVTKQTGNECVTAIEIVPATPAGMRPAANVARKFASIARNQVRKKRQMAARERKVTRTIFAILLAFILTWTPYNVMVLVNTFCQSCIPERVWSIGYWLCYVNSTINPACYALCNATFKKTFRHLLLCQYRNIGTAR
The assay is described as follows: Rat M4 PAM pERK assay. Format: cell-based. The note with it: PAM mode. The method, boiled down:
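CHO cells expressing hM4 or rM4 were serum-starved 4 h, then given compound (ten-point curve, 10 μM top, duplicate) with an EC20 of acetylcholine (10 nM final) for 5 min at 37° C. Phospho-ERK in lysates was detected by TR-FRET.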

From patent publication US12421242B2, “Substituted tetrahydropyrrolo-pyridinone compounds and their use in treating medical conditions” (Karuna Therapeutics, Inc., priority 2022, dated 2025) come the findings set out here.

Each structure is given as a SMILES string.

Turning to `Cc1c2c(n(C)c(=O)c1Cl)CN(C(=O)c1cnn(C(F)(F)F)c1)C2` [Compound I-1, 3-chloro-1,4-dimethyl-6-(1-(Trifluoromethyl)-1H-pyrazole-4-carbonyl)-1,5,6,7-tetrahydro-2H-pyrrolo[3,4-b]pyridin-2-one], the “Dose Amount of Compound at which rats displayed a reduction in amphetamine-evoked hyperlocomotion activity” value in assay [1] was 32 mg/kg. Further, in assay [2], the EC50 fell in the range of 500 to 2000 nM.
With `Cc1c2c(n(C)c(=O)c1Cl)CN(C(=O)c1cnn(C(F)(F)F)c1)[C@@H]2C` [Compound I-76, (R)-3-Chloro-1,4,5-trimethyl-6-(1-(trifluoromethyl)-1H-pyrazole-4-carbonyl)-1,5,6,7-tetrahydro-2H-pyrrolo[3,4-b]pyridin-2-one], the “Dose Amount of Compound at which rats displayed a reduction in amphetamine-evoked hyperlocomotion activity” value in assay [1] was 3.2 mg/kg. In assay [2], this compound came in with an EC50 of 100 to 500 nM.
In the case of `COc1c2c(n(C)c(=O)c1C)CN(C(=O)c1cnn(C(F)(F)F)c1)C2` [Compound I-87], in assay [1], the “Dose Amount of Compound at which rats displayed a reduction in amphetamine-evoked hyperlocomotion activity” value was found to be 32 mg/kg. In assay [2], this compound registered an EC50 of more than 2000 nM.
